Read-outs that look alike come from different tables or passages of the source.
Key:
human recombinant BACE1 = human recombinant BACE1 (Homo sapiens (Human), UniProt P56817); experiment: In vitro enzymatic BACE1 FRET assay; type: biochemical; conditions: read-out: IC50 IP (μM) BACE1 enzyme
How it was run: (§1)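 Fluorescence from cleavage of a quenched peptide spanning the BACE site (50 nM) was read at 488 nm excitation, 590 nm emission. Purified enzyme (Ni-NTA) and compound reacted for one hour before a Tris stop shifted pH to neutral.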

human recombinant BACE2 = human recombinant BACE2 (Homo sapiens (Human), UniProt Q9Y5Z0); experiment: In vitro enzymatic BACE2 FRET assay; type: biochemical; conditions: read-out: IC50 IP (μM) BACE2 enzyme
Chain of human recombinant BACE2 (Q9Y5Z0 63-518): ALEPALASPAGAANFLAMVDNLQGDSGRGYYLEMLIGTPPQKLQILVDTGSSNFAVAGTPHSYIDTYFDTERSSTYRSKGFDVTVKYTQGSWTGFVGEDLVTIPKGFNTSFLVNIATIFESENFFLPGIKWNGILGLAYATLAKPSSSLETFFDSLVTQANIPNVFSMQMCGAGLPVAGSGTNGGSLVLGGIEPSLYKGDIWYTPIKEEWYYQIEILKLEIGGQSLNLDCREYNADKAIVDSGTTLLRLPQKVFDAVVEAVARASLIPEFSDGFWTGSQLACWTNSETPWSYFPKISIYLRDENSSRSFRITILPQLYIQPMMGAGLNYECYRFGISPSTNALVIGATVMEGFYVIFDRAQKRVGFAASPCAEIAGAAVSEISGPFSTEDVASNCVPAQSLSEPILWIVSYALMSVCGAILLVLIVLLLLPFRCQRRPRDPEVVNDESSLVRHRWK
How it was run: as §1

[1] = system: Aβ40 in conditioned medium of cells stably expressing Amyloid Precursor Protein (APP); experiment: In vitro BACE-1 cell-based assay (Aβ40 sandwich ELISA); conditions: read-out: IC50 IP (μM) BACE1 cell
How it was run: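 Aβ40 in supernatants measured by time-resolved fluorescence sandwich ELISA, with pAb40 as capture and biotin-6E10 as detector antibody, each incubated at 4 °C.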

Recombinant Cat D = Recombinant Cat D (Homo sapiens (Human), UniProt P07339); experiment: In vitro enzymatic Cathepsin D (Cat D) FRET assay; type: biochemical; conditions: read-out: IC50 IP (μM) CatD
Chain of Recombinant Cat D (P07339 65-412): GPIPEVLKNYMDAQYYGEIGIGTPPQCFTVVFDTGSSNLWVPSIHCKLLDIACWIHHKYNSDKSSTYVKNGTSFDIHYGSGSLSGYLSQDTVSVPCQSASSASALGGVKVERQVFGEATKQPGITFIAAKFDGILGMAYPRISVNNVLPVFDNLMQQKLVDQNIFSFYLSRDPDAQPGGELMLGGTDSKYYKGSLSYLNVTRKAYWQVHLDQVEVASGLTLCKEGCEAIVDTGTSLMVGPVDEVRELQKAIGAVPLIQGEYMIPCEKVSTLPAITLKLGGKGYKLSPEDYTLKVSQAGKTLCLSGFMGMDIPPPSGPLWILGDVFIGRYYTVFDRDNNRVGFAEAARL
How it was run: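 Fluorescence at 500 nm excitation and 580 nm emission reports cleavage of a quenched fluorophore–quencher peptide (20 nM) by CHO-expressed Cat D. Reactions ran one hour in 0.05 M citrate pH 3.5, 5 mM CHAPS, 10% DMSO final before a Tris stop raised pH to neutrality.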

Aβ 40 in rat CSF = experiment: In vivo inhibition of beta-secretase: Aβ40 reduction in rat CSF; conditions: 10 mpk, after 4 h
How it was run: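 Male Sprague Dawley rats (200 g) dosed orally in 2% HPMC, 1% Tween80, pH 2.2, at 3, 10 or 30 mg/kg; CSF and brain taken 4 h later. Brain homogenate centrifuged at 355,000 g; Aβ40 measured by ECL sandwich ELISA (4G8 capture, Abeta40 C-terminal Fab detection), as % reduction versus vehicle controls.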

Aβ 40 in rat brain = experiment: In vivo inhibition of beta-secretase: Aβ40 reduction in rat brain; conditions: 10 mpk, after 4 h
How it was run: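 Rats were dosed by oral gavage at up to 100 mg/kg in 2% HPMC, 1% Tween80, pH 2.2, with vehicle-only controls. Supernatant Aβ40 was measured by ECL sandwich ELISA with biotinylated-4G8 capture and C-terminal Fab40 detection.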

Chain of human recombinant BACE1 (P56817 46-501): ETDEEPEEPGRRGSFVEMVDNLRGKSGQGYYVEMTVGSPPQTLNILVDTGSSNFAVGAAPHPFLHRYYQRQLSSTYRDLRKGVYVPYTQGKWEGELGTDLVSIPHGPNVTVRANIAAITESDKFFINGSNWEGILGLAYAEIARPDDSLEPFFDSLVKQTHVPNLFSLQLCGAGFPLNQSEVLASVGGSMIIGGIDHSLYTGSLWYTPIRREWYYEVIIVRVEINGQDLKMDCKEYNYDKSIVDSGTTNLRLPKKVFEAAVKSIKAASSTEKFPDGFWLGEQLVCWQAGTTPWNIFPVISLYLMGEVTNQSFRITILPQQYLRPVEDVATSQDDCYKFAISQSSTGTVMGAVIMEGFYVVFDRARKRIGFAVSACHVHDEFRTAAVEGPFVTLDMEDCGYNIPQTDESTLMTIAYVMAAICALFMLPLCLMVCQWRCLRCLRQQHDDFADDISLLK

| Structure (SMILES) | IC50 (human recombinant BACE1) [µM] | IC50 (human recombinant BACE2) [µM] | IC50 [1] [µM] | IC50 (Recombinant Cat D) [µM] | IC50 (human recombinant BACE1; BACE1 FRET enzyme assay) [µM] | IC50 (human recombinant BACE2; BACE2 FRET enzyme assay) [µM] | IC50 ([1]; BACE1 cell-based assay) [µM] | IC50 (Recombinant Cat D; Cathepsin D FRET enzyme assay) [µM] | % Aβ 40 reduction in rat CSF at 10 mpk (Aβ 40 in rat CSF) [%] | % Aβ 40 reduction in rat brain at 10 mpk (Aβ 40 in rat brain) [%] |
| --- | --- | --- | --- | --- | --- | --- | --- | --- | --- | --- |
| Cc1cc(OCC(F)(F)F)cnc1C(=O)Nc1cc(F)c(F)c([C@@]2(C)N=C(N)S[C@@]3(CF)C[C@H]32)c1 [Example 678, N-(3-((1S,5S,6S)-3-amino-1-(fluoromethyl)-5-methyl-2-thia-4-azabicyclo[4.1.0]hept-3-en-5-yl)-4,5-difluorophenyl)-3-methyl-5-(2,2,2-trifluoroethoxy)-2-pyridinecarboxamide] | 0.00612 | 0.579 | 0.0286 | 747 |  |  |  |  | 40 | 11 |
| COC[C@]12C[C@H]1[C@@](C)(c1cc(Nc3nccc4nc(OCc5cocn5)cnc34)cc(F)c1F)N=C(N)S2 [Example 628, N-(3-((1S,5S,6S)-3-amino-1-(methoxymethyl)-5-methyl-2-thia-4-azabicyclo[4.1.0]hept-3-en-5-yl)-4,5-difluorophenyl)-2-(1,3-oxazol-4-ylmethoxy)pyrido[3,4-b]pyrazin-5-amine] | 0.00324 | 0.0383 | 0.0148 | 443 |  |  |  |  | 59 | 50 |
| NC1=N[C@](CF)(c2cc(Nc3nccc4nc(OCc5ncco5)cnc34)cc(F)c2F)[C@@H]2C[C@@H]2S1 [Example 842, N-(3-((1S,5S,6S)-3-amino-5-(fluoromethyl)-2-thia-4-azabicyclo[4.1.0]hept-3-en-5-yl)-4,5-difluorophenyl)-2-(1,3-oxazol-2-ylmethoxy)pyrido[3,4-b]pyrazin-5-amine] | 0.00256 | 0.119 | 0.0217 | > 400 |  |  |  |  | 51 | 25 |
| C#CCOc1cnc2c(Nc3cnc(F)c([C@@]4(C)N=C(N)S[C@@]5([C@@H](O)C(F)(F)F)C[C@H]54)c3)nccc2n1 [Example 660, (1S)-1-((1S,5S,6S)-3-amino-5-(2-fluoro-5-((2-(2-propyn-1-yloxy)pyrido[3,4-b]pyrazin-5-yl)amino)-3-pyridinyl)-5-methyl-2-thia-4-azabicyclo[4.1.0]hept-3-en-1-yl)-2,2,2-trifluoroethanol] | 0.00133 | 0.0235 | 0.00345 | 554 |  |  |  |  | 38 | 26 |
| C#CCOc1cnc2c(Nc3cc(F)c(F)c([C@@]4(C)N=C(N)S[C@@]5(CO)C[C@H]54)c3)nccc2n1 [Example 82, ((1S,5S,6S)-3-amino-5-(2,3-difluoro-5-((2-(2-propyn-1-yloxy)pyrido[3,4-b]pyrazin-5-yl)amino)phenyl)-5-methyl-2-thia-4-azabicyclo[4.1.0]hept-3-en-1-yl)methanol] |  |  |  |  | 0.00043 | 0.0099 | 0.00354 | > 133 | 48 | 23 |
| Cc1cc(OCc2ncco2)cnc1C(=O)Nc1cc(F)c(F)c([C@@]2(C)N=C(N)S[C@@]3(CF)C[C@H]32)c1 [Example 645, N-(3-((1S,5S,6S)-3-amino-1-(fluoromethyl)-5-methyl-2-thia-4-azabicyclo[4.1.0]hept-3-en-5-yl)-4,5-difluorophenyl)-3-methyl-5-(1,3-oxazol-2-ylmethoxy)-2-pyridinecarboxamide] | 0.00337 | 0.143 | 0.0246 | 477 |  |  |  |  | 53 | 34 |
| CN(C)C(=O)/C=C/[C@]12C[C@H]1[C@@](CF)(c1cc(Nc3nccc4cc(OCc5ncco5)cnc34)ccc1F)N=C(N)S2 [Example 770, (2E)-3-((1R,5S,6S)-3-amino-5-(fluoromethyl)-5-(2-fluoro-5-((3-(1,3-oxazol-2-ylmethoxy)-1,7-naphthyridin-8-yl)amino)phenyl)-2-thia-4-azabicyclo[4.1.0]hept-3-en-1-yl)-N,N-dimethyl-2-propenamide] | 0.00294 | 0.143 | 0.00281 | 311 |  |  |  |  | 22 | 6 |

More lines, main results first:

| IC50 (human recombinant BACE1) [µM] | IC50 (human recombinant BACE2) [µM] | IC50 [1] [µM] | IC50 (Recombinant Cat D) [µM] | IC50 (human recombinant BACE1; BACE1 FRET enzyme assay) [µM] | IC50 (human recombinant BACE2; BACE2 FRET enzyme assay) [µM] | IC50 ([1]; BACE1 cell-based assay) [µM] | IC50 (Recombinant Cat D; Cathepsin D FRET enzyme assay) [µM] | Structure (SMILES) | % Aβ 40 reduction in rat CSF at 10 mpk (Aβ 40 in rat CSF) [%] | % Aβ 40 reduction in rat brain at 10 mpk (Aβ 40 in rat brain) [%] |
| --- | --- | --- | --- | --- | --- | --- | --- | --- | --- | --- |
| 0.000791 | 0.0296 | 0.00186 | 351 |  |  |  |  | C#CCOc1cnc2c(Nc3ccc(F)c([C@@]4(C)N=C(N)S[C@@]5(CF)C[C@H]54)c3)nccc2n1 [Example 823, N-(3-((1S,5S,6S)-3-amino-1-(fluoromethyl)-5-methyl-2-thia-4-azabicyclo[4.1.0]hept-3-en-5-yl)-4-fluorophenyl)-2-(2-propyn-1-yloxy)pyrido[3,4-b]pyrazin-5-amine] | 78 | 78 |
| 0.00105 | 0.0661 | 0.00709 | 381 |  |  |  |  | C#CCOc1cnc2c(Nc3cc(F)c(F)c([C@@]4(C)N=C(N)S[C@@]5(C(F)F)C[C@@H]45)c3)ncnc2c1 [Example 945, N-(3-((1S,5S,6S)-3-amino-1-(difluoromethyl)-5-methyl-2-thia-4-azabicyclo[4.1.0]hept-3-en-5-yl)-4,5-difluorophenyl)-7-(2-propyn-1-yloxy)pyrido[3,2-d]pyrimidin-4-amine] | 68 | 55 |
| 0.000918 | 0.0808 | 0.0116 | 776 |  |  |  |  | COC[C@]12C[C@H]1[C@@](C)(c1cc(NC(=O)c3cnc(OCC4CC4)cn3)cc(F)c1F)N=C(N)S2 [Example 1021, N-(3-((1S,5S,6S)-3-amino-1-(methoxymethyl)-5-methyl-2-thia-4-azabicyclo[4.1.0]hept-3-en-5-yl)-4,5-difluorophenyl)-5-(cyclopropylmethoxy)-2-pyrazinecarboxamide] | 44 | 25 |
| 0.00115 | 0.0544 | 0.00103 | 196 |  |  |  |  | C#CCOc1cnc(C(=O)Nc2cnc(OC)c([C@@]3(C)N=C(N)S[C@@]4(CF)C[C@H]43)c2)cn1 [Example 612, N-(5-((1S,5S,6S)-3-amino-1-(fluoromethyl)-5-methyl-2-thia-4-azabicyclo[4.1.0]hept-3-en-5-yl)-6-methoxy-3-pyridinyl)-5-(2-propyn-1-yloxy)-2-pyrazinecarboxamide] | 84 | 82 |
| 0.000437 | 0.0199 | 0.00049 | 1060 |  |  |  |  | C#CCOc1cnc2c(Nc3cnc(F)c([C@@]4(C)N=C(N)S[C@@]5(CO)C[C@H]54)c3)nccc2n1 [Example 662, ((1S,5S,6S)-3-amino-5-(2-fluoro-5-((2-(2-propyn-1-yloxy)pyrido[3,4-b]pyrazin-5-yl)amino)-3-pyridinyl)-5-methyl-2-thia-4-azabicyclo[4.1.0]hept-3-en-1-yl)methanol] | 40 | 37 |
| 0.000249 | < 0.00203 | 0.00138 | 17.8 |  |  |  |  | C#CCOc1cnc(C(=O)Nc2cc(F)c(F)c([C@@]3(C)N=C(N)S[C@@]4(C#N)C[C@H]43)c2)cn1 [Example 924, N-(3-((1S,5S,6S)-3-amino-1-cyano-5-methyl-2-thia-4-azabicyclo[4.1.0]hept-3-en-5-yl)-4,5-difluorophenyl)-5-(2-propyn-1-yloxy)-2-pyrazinecarboxamide] | 84 | 76 |
| 0.000222 | 0.0189 | 0.00497 | 27 |  |  |  |  | C#CCOc1cnc2c(Nc3cc(F)c(F)c([C@@]4(C)N=C(N)S[C@@]5(C(F)F)C[C@@H]45)c3)nccc2n1 [Example 805, N-(3-((1S,5S,6S)-3-amino-1-(difluoromethyl)-5-methyl-2-thia-4-azabicyclo[4.1.0]hept-3-en-5-yl)-4,5-difluorophenyl)-2-(2-propyn-1-yloxy)pyrido[3,4-b]pyrazin-5-amine] | 59 | 53 |

From patent US20160046618A1, “Cyclopropyl Fused Thiazin-2-Amine Compounds as Beta-Secretase Inhibitors and Methods of Use” (AMGEN INC., priority 2014, published 2016)
